Earlier results as cited in publication PMC9318694 (Molecules, 2022).

Target: D2R (Homo sapiens, UniProt P14416)
Sequence (P14416 whole entry): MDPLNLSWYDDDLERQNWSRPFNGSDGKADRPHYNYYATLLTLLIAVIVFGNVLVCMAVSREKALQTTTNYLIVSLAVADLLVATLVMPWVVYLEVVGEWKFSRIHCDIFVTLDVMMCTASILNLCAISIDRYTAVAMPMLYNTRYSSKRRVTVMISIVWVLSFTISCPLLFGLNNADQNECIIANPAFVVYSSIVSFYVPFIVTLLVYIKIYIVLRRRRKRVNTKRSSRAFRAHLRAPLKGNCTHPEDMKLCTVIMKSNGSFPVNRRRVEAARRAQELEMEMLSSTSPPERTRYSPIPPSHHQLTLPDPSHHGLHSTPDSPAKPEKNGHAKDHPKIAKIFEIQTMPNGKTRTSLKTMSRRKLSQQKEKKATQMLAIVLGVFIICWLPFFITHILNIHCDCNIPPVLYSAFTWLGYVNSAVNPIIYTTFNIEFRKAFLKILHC
Settings: Table S1; data set of actives, radio-ligand binding assays; ref ChEMBL, [50]-[70]; read-out: KI; cited from earlier work
In the case of `CCCCn1c(=O)n2c3c(cccc31)C[C@@H](NC)C2` [SC39, (R)-1-butyl-5-(methylamino)-5,6-dihydro-4H-imidazo[4,5,1-ij]quinolin-2(1H)-one], the Ki is given as 0.0128 µM. In the case of `CN(CCCCOc1ccc2c(c1)NC(=O)CC2)[C@@H]1Cc2cccc3[nH]c(=O)n(c23)C1` [SC49, (R)-5-(methyl(4-((2-oxo-1,2,3,4-tetrahydroquinolin-7-yl)oxy)butyl)amino)-5,6-dihydro-4H-imidazo[4,5,1-ij]quinolin-2(1H)-one], the Ki is listed as 0.0401 µM. For `Clc1cccc(C2CCN(CCCOc3ccc4scnc4c3)CC2)c1Cl` [SC7, 5-(3-(4-(2,3-dichlorophenyl)piperidin-1-yl)propoxy)benzo[d]thiazole], the Ki is listed as 0.075 µM. For `CCCN[C@@H]1Cc2cccc3c2n(c(=O)n3CCC)C1` [SC41, (R)-1-propyl-5-(propylamino)-5,6-dihydro-4H-imidazo[4,5,1-ij]quinolin-2(1H)-one], the Ki is given as 0.00808 µM. In the case of `CCCN(CCC)[C@@H]1Cc2cccc3nc(O)n(c23)C1` [SC17, (R)-5-(dipropylamino)-5,6-dihydro-4H-imidazo[4,5,1-ij]quinolin-2-ol], the Ki is given as 0.0114 µM. In the case of `CCCCn1cc(CCCOc2ccc(C(=O)NCCCCN(CCC)[C@H]3CCc4c(O)cccc4C3)cc2OC)nn1` [SC37, (S)-4-(3-(1-butyl-1H-1,2,3-triazol-4-yl)propoxy)-N-(4-((5-hydroxy-1,2,3,4-tetrahydronaphthalen-2-yl)(propyl)amino)butyl)-3-methoxybenzamide], the Ki is listed as 0.00047 µM. In the case of `C#CC1=CC[C@@H](N(CCC)CCCCNC(=O)c2ccc(OCCCc3cn(CCCC)nn3)c(OC)c2)CO1` [SC34, (R)-4-(3-(1-butyl-1H-1,2,3-triazol-4-yl)propoxy)-N-(4-((6-ethynyl-3,4-dihydro-2H-pyran-3-yl)(propyl)amino)butyl)-3-methoxybenzamide], the Ki is listed as 0.0016 µM. For `O=C1NCCc2ccc(OCCCN3CCN(c4cccc(Cl)c4Cl)CC3)cc21` [SC5, 7-(3-(4-(2,3-dichlorophenyl)piperazin-1-yl)propoxy)-3,4-dihydroisoquinolin-1(2H)-one], the Ki is given as 0.018 µM. In the case of `Oc1ccc2c(c1)O[C@@H](CNCc1ccc(OCCCCF)cc1)CC2` [SC22, (R)-2-(((4-(4-fluorobutoxy)benzyl)amino)methyl)chroman-7-ol], the Ki is given as 0.0056 µM. For `COc1ccccc1N1CCN(CCCCCNC(=O)c2sc3nc(OC)c(Cl)c(C)c3c2N)CC1` [SC27, 3-amino-5-chloro-6-methoxy-N-(5-(4-(2-methoxyphenyl)piperazin-1-yl)pentyl)-4-methylthieno[2,3-b]pyridine-2-carboxamide], the Ki is listed as 0.0035 µM. In the case of `CC(C)(C)OC(=O)NCCCCCN1CCN(c2cccc(Cl)c2Cl)CC1` [SC28, tert-butyl (5-(4-(2,3-dichlorophenyl)piperazin-1-yl)pentyl)carbamate], the Ki is listed as 0.0426 µM. In the case of `Oc1ccc2c(c1)O[C@@H](CNCc1cccc(I)c1)CC2` [SC21, (R)-2-(((3-iodobenzyl)amino)methyl)chroman-7-ol], the Ki is listed as 0.00206 µM. In the case of `C=CCN1C[C@H](C(=O)N(CCCN(C)C)C(=O)NCC)C[C@@H]2c3cccc4[nH]cc(c34)C[C@H]21` [Compound 3, Cabergoline], the Ki is given as 0.0007 µM. For `O=c1ccc2c(N3CCCN(CCCCOc4ccn5nccc5c4)CC3)ccc(O)c2[nH]1` [SC46, 8-hydroxy-5-(4-(4-(pyrazolo[1,5-a]pyridin-5-yloxy)butyl)-1,4-diazepan-1-yl)quinolin-2(1H)-one], the Ki is given as 0.078 µM.

Same assay, conditions: Table S2; data set of inactives, radio-ligand binding (RLB) assays; ref ChEMBL, [71]-[92]; read-out: KI; cited from earlier work
For `COc1cccc(CCc2ccccc2OCCCCN2CCN(c3cccc(Cl)c3)CC2)c1` [SC102, 1-(3-chlorophenyl)-4-[4-[2-[2-(3-methoxyphenyl)ethyl]phenoxy]butyl]piperazine], the Ki is listed as > 1000 µM. In the case of `OCc1cccn2ncc(CN3CCN(c4ccc(Cl)cc4)CC3)c12` [SC70, [3-[[4-(4-chlorophenyl)piperazin-1-yl]methyl]pyrazolo[1,5-a]pyridin-4-yl]methanol], the Ki is listed as 79 µM. In the case of `CCCN(CCC)[C@@H]1CCn2nccc2C1` [SC97, (5R)-N,N-dipropyl-4,5,6,7-tetrahydropyrazolo[1,5-a]pyridin-5-amine], the Ki is given as 55 µM. In the case of `COc1cccc(CCc2ccccc2OCCCCN2CCc3ccccc3C2)c1` [SC113, 2-[4-[2-[2-(3-methoxyphenyl)ethyl]phenoxy]butyl]-3,4-dihydro-1H-isoquinoline], the Ki is listed as > 1000 µM. In the case of `COc1cccc(CCc2ccccc2OCCCCCN2CCN(c3cccc(Cl)c3)CC2)c1` [SC103, 1-(3-chlorophenyl)-4-[5-[2-[2-(3-methoxyphenyl)ethyl]phenoxy]pentyl]piperazine], the Ki is listed as > 1000 µM. In the case of `COc1cccc(CCc2ccccc2OCCN2CCN(c3cccc(C(F)(F)F)c3)CC2)c1` [SC104, 1-[2-[2-[2-(3-methoxyphenyl)ethyl]phenoxy]ethyl]-4-[3-(trifluoromethyl)phenyl]piperazine], the Ki is listed as > 1000 µM. In the case of `COc1cc2c(cc1OC)CN(C=Nc1ccc3c(c1)C(O)CC3)CC2` (stereo not shown) [SC67, 6-[(6,7-dimethoxy-3,4-dihydro-1H-isoquinolin-2-yl)methylideneamino]-2,3-dihydro-1H-inden-1-ol], the Ki is given as > 300 µM. For `COc1cccc(CCc2ccccc2OCCN2CCc3cc(OC)c(OC)cc3C2)c1` [SC114, 6,7-dimethoxy-2-[2-[2-[2-(3-methoxyphenyl)ethyl]phenoxy]ethyl]-3,4-dihydro-1H-isoquinoline], the Ki is listed as > 1000 µM. For `COc1cccc(CCc2ccccc2OCCCN2CCN(c3cccc(C(F)(F)F)c3)CC2)c1` [SC105, 1-[3-[2-[2-(3-methoxyphenyl)ethyl]phenoxy]propyl]-4-[3-(trifluoromethyl)phenyl]piperazine], the Ki is given as 1410 µM. In the case of `COc1cccc(CCc2ccccc2OCCCCN2CCN(c3ncccn3)CC2)c1` [SC117, 2-[4-[4-[2-[2-(3-methoxyphenyl)ethyl]phenoxy]butyl]piperazin-1-yl]pyrimidine], the Ki is given as 854 µM. In the case of `Fc1ccc(N2CCN(Cc3cn4ccncc4n3)CC2)cc1` [SC95, 2-[[4-(4-fluorophenyl)piperazin-1-yl]methyl]imidazo[1,2-a]pyrazine], the Ki is listed as 68 µM. For `COc1cccc(CCc2ccccc2OCCN2CCN(c3cccc(Cl)c3)CC2)c1` [SC121, 1-(3-chlorophenyl)-4-[2-[2-[2-(3-methoxyphenyl)ethyl]phenoxy]ethyl]piperazine], the Ki is listed as > 1000 µM.

Same assay, conditions: read-out: KI; cited from earlier work
For `COc1cccc(CCc2ccccc2OCCN2CCc3ccccc3C2)c1` [SC126, 2-[2-[2-[2-(3-methoxyphenyl)ethyl]phenoxy]ethyl]-3,4-dihydro-1H-isoquinoline], the Ki is given as > 1000 µM. For `C#CC1=CC[C@H](N(CCC)CCCCNC(=O)c2cnn3ccccc23)CC1` [SC13, (R)-N-(4-((4-ethynylcyclohex-3-en-1-yl)(propyl)amino)butyl)pyrazolo[1,5-a]pyridine-3-carboxamide], the Ki is listed as 0.0011 µM. For `Clc1cccc(C2CCN(CCCCOc3ccc4scnc4c3)CC2)c1Cl` [SC6, 5-(4-(4-(2,3-dichlorophenyl)piperidin-1-yl)butoxy)benzo[d]thiazole], the Ki is listed as 0.042 µM. In the case of `CCCN(CCCCNC(=O)c1cc2ccccc2[nH]1)[C@@H]1Cc2cccc3c2n(c(=O)n3CCC)C1` [SC47, (R)-N-(4-((2-oxo-1-propyl-1,2,5,6-tetrahydro-4H-imidazo[4,5,1-ij]quinolin-5-yl)(propyl)amino)butyl)-1H-indole-2-carboxamide], the Ki is listed as 0.00843 µM. In the case of `CCCN(CCC)[C@@H]1Cc2cccc3c2n(c(=O)n3CCCCNC(=O)c2cc3ccccc3[nH]2)C1` [SC43, (R)-N-(4-(5-(dipropylamino)-2-oxo-5,6-dihydro-4H-imidazo[4,5,1-ij]quinolin-1(2H)-yl)butyl)-1H-indole-2-carboxamide], the Ki is listed as 0.0868 µM.
